# Tests used:
# [1] = Pharmacokinetic evaluation after intravenous or gavage administration to dogs; assay type: in vivo, Beagle dogs; settings: for AUC(0-inf) / AUC(0-t) / Cmax / MRT inf / Tmax / clearance / half-life / Vd: beagle, dog, plasma; for Vd: read-out: Vss
# Experimental: Example B: Pharmacokinetic Evaluation after Administering a Certain Amount of the Compounds of the Invention Intravenously or by Gavage to Dogs and Monkeys
# In vivo pharmacokinetic assays in dogs and cynomolgus monkeys of the compounds disclosed herein were performed by the following steps.
# Experiments were divided into two groups, one group was administered through intravenous drug delivery, and the other group was administered by gavage. The compounds disclosed herein were administered in form of a saline solution containing 5% DMSO, 5% Kolliphor HS 15, 2% (2% HCl) and 88% Saline, or the solution containing 10% DMSO, 10% Kolliphor HS 15 and 80% physiological saline. For intravenous administration, the animals were administered with a dose of 1 mg/kg, and 0.3 mL of vein blood was collected at the time points of 0.083, 0.25, 0.5, 1.0, 2.0, 4.0, 6.0, 8.0 and 24 h after drug administration (the time point of drug administration was set as 0 h), then each blood sample was processed to separate plasma by centrifugation at 3000 rpm or 4000 rpm for 10 minutes, and plasma was collected and stored at −20° C. or −70° C. until LC/MS/MS analysis described above. For gavage administration, the animals were administered with a dose of 2.5 mg/kg or 5 mg/kg, and 0.3 mL of vein blood was collected at the time points of 0.25, 0.5, 1.0, 2.0, 4.0, 6.0, 8.0 and 24 h after drug administration (the time point of drug administration was set as 0 h), then each blood sample was processed to separate plasma by centrifugation at 3000 rpm or 4000 rpm for 10 minutes, and plasma was collected and stored at −20° C. or −70° C. until LC/MS/MS analysis described above.
# The above plasma was analyzed by the LC/MS/MS system.
# [2] = Stability in human liver microsomes; assay type: in vitro ADME; settings: for half-life at 1 μM / CLint scaled at 1 μM: liver microsomes, human liver microsome 0.5 mg/mL, 1 μM compound, 37° C., pH 7.4; for CLint scaled at 1 μM: read-out: Intrinsic clearance; for degradation in human liver microsomes in vitro: in 60 minutes
# Experimental: (§1) Example C: Evaluation of the Stability of the Compounds of the Invention in Rat and Human Liver Microsomes
# (§2) The compound of the invention and rat liver microsome or human liver microsome were placed in 0.1 M potassium phosphate buffer (containing 1.0 mM EDTA, pH=7.4) at 37° C., and the mixture was incubated at 37° C. The concentrations of the compound at different incubation time points were determined, and the half-life of the compound was calculated by curve plotted based on the relative contents of the compound and the corresponding incubation times by using GraphPad Prism 5.01. Then the intrinsic clearance was calculated.
# (§3) The peak area ratio of sample to internal standard was analyzed by the LC/MS/MS system. The content of the compound at 0 min was 100%, and the relative contents of the compound at different time points were calculated. The half-life of the compound was calculated by curve plotted based on the relative contents of the compound and the corresponding incubation times, and the intrinsic clearance was calculated.
# human 5-HT6 receptor = human 5-HT6 receptor (Homo sapiens (Human), UniProt P50406); experiment: Radioligand binding assay, human 5-HT6 receptor expressed in CHO cell; settings: 2 nM [3H]LSD
# Experimental: Example A: The Binding Affinities of the Compounds of this Invention to Human 5-HT6 Receptor Expressed in CHO Cell were Evaluated by Radioligand Binding Assay as Follows
# 32 μg membrane proteins of CHO cell expressing human 5-HT6 receptor, 2 nM of radioactive marker [3H]LSD, a compound of the present invention having different test concentrations, 100 μM 5-HT (5-HT was used to eliminate nonspecific binding sites) and a buffer solution were mixed uniformly. Then the resulting mixture was incubated at 37° C. for 120 min, in which the buffer solution comprised 50 mM Tris-HCl (pH 7.4), 10 mM MgCl2, 0.5 mM EDTA, 10 μM pargyline and 20 mg/L protease inhibitor.
# After incubation, the resulting mixture was filtered by a fiberglass filter (GF/B, Packard) in vacuo, and the filter membrane of the fiberglass filter was preimpregnated with 0.3% PEI before the filtering and washed with 50 mM of Tris-HCl for several times after the filtering. After the filter membrane was dried, and the radioactivity of filter membrane was determined by liquid scintillation counting by using a scintillometer (Topcount, Packard). The reference standard was 5-HT, and competitive inhibition curves were plotted based on several inhibition ratios and the corresponding compound concentrations. IC50 values were calculated by non-linear regression analysis using Hill equation curves, and the Ki values were calculated from IC50 by using the ChengPrusoff equation.
# [3] = Stability in rat liver microsomes; assay type: in vitro ADME; settings: rat liver microsome 0.5 mg/mL, 1 μM compound, 37° C.; for half-life at 1 μM: pH 7.4; for CLint scaled at 1 μM: pH 7.4, read-out: Intrinsic clearance
# Experimental: as §1, §2, §3
# [4] = intravenous drug delivery group, dose 1 mg/kg
# [5] = po, gavage group, dose 2.5 mg/kg
# human 5-HT6 receptor, sequence (P50406 whole entry): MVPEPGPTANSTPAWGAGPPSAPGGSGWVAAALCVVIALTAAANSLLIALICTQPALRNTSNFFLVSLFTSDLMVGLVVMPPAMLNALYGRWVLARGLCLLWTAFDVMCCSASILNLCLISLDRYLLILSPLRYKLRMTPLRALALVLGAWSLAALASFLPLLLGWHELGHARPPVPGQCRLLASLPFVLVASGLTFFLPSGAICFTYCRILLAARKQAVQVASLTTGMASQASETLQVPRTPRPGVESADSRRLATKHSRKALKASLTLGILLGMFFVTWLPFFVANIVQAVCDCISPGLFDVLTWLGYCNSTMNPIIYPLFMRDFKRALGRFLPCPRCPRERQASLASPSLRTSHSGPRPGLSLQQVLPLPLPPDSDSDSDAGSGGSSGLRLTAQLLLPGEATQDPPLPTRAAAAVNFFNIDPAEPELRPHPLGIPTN
SMILES,"AUC(0-inf) [1, 4] [ng·h/mL]","AUC(0-t) [1, 4] [ng·h/mL]","Cmax [1, 4] [ng/mL]","MRT inf [1, 4] [h]","Tmax [1, 4] [h]","clearance [1, 4] [mL/min/kg]","half-life [1, 4] [min]","Vd [1, 4] [L/kg]","AUC(0-inf) [1, 5] [ng·h/mL]","AUC(0-t) [1, 5] [ng·h/mL]","Cmax [1, 5] [ng/mL]","MRT inf [1, 5] [h]","Tmax [1, 5] [h]","half-life [1, 5] [min]","F ([1]; gavage group, dose 2.5 mg/kg) [%]",half-life at 1 μM [2] [min],CLint scaled at 1 μM [2] [mL/min/kg],Ki (human 5-HT6 receptor) [nM],half-life at 1 μM [3] [min],CLint scaled at 1 μM [3] [mL/min/kg],also measured
"O=S(=O)(c1ccccc1Cl)n1cc(C(F)F)c2c(N3CCNCC3)cccc21 [Example 3, 1-((2-chlorophenyl)sulfonyl)-3-(difluoromethyl)-4-(piperazin-1-yl)-1H-indole]",2340,2660,293,8.77,8.06,7.13,376,3.77,17600,9250,975,17.9,4.67,882,139,132,13.2,0.43,30.1,82.6,
"O=S(=O)(c1cccc(Cl)c1)n1cc(C(F)F)c2c(N3CCNCC3)cccc21 [Example 6, 1-((3-chlorophenyl)sulfonyl)-3-(difluoromethyl)-4-(piperazin-1-yl)-1H-indole]",,,,,,,,,,,,,,,,,,0.68,35.5,70,degradation in human liver microsomes in vitro [2]: almost had no degradation
"O=S(=O)(c1ccccc1Br)n1cc(C(F)F)c2c(N3CCNCC3)cccc21 [Example 4, 1-((2-bromophenyl)sulfonyl)-3-(difluoromethyl)-4-(piperazin-1-yl)-1H-indole]",,,,,,,,,,,,,,,,157,11.1,1.1,30.4,81.8,
"O=S(=O)(c1cccc(F)c1)n1cc(C(F)F)c2c(N3CCNCC3)cccc21 [Example 5, 3-(difluoromethyl)-1-((3-fluorophenyl)sulfonyl)-4-(piperazin-1-yl)-1H-indole]",1190,1100,125,8.77,0.389,14,389,7.36,,,,,,,,218,7.99,0.52,43.5,57.1,"AUC(0-inf) ([1]; po, gavage group, dose 5 mg/kg): 8350 ng·h/mL; AUC(0-t) ([1]; po, gavage group, dose 5 mg/kg): 5680 ng·h/mL; Cmax ([1]; po, gavage group, dose 5 mg/kg): 347 ng/mL; MRT inf ([1]; po, gavage group, dose 5 mg/kg): 15 h; Tmax ([1]; po, gavage group, dose 5 mg/kg): 6 h; half-life ([1]; po, gavage group, dose 5 mg/kg): 606 min; F ([1]; gavage group, dose 5 mg/kg): 103.21%; degradation in human liver microsomes in vitro [2]: almost had no degradation"
"O=S(=O)(c1ccccc1F)n1cc(C(F)F)c2c(N3CCNCC3)cccc21 [Example 2, 3-(difluoromethyl)-1-((2-fluorophenyl)sulfonyl)-4-(piperazin-1-yl)-1H-indole]",926,781,106,8.73,0.194,18.5,386,9.86,3160,2400,173,16.8,3.33,684,103.67,133,13.1,0.46,35,71,
"O=S(=O)(c1cccc(F)c1)n1cc(C(F)F)c2c(N3CCNCC3)cc(Br)cc21 [Example 35, 6-bromo-3-(difluoromethyl)-1-((3-fluorophenyl)sulfonyl)-4-(piperazin-1-yl)-1H-indole]",,,,,,,,,,,,,,,,,,1.9,,,

# — patent publication US9974785B2, “Aromatic heterocyclic derivatives and pharmaceutical applications thereof” (SUNSHINE LAKE PHARMA CO., LTD., priority 2014, dated 2018)
